System: PDE4
Assay: PDE4 inhibition, scintillation proximity assay (SPA);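 also: A below 100 nM B 100 to below 1000 nM C 1000 nM or more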
Format: biochemical
Settings: scintillation proximity assay (SPA); evaluated as classes A, B, C; read-out: PDE4 Inhibitory Activity (concentration for the inhibition rate of 50%)
Description: The PDE4 inhibitory activity was measured using scintillation proximity assay (SPA) as follows. A sample compound dissolved in dimethyl sulfoxide was diluted 1:10 in reaction buffer solution which contained 50 mM of Tris-HCl with pH 7.4, 8.3 mM of MgCl2, 1.7 mM of EGTA, and 3 mg/mL of bovine serum albumin (BSA). Then, 10 μL of the diluted solution was added in a 96-well assay plate. Moreover, 50 μL of PDE4 diluted 1:375 in the reaction buffer solution was added, and then 40 μL of [2,8-^3H]-adenosine-3′,5′-cyclic phosphate triethylammonium salt diluted 1:1000 in the reaction buffer solution was added. The mixture was allowed to stand at room temperature for 120 minutes. Thereafter, […] of RNA binding YSi-SPA beads suspension containing ZnSO4 was added and the mixture was allowed to stand at room temperature for 15 minutes, followed by adsorption of the enzyme reaction product to the beads. After that, the radioactivity was measured using a liquid scintillation counter for a 96-well plate. The mixture without the enzyme preparation added but only the reaction buffer solution added is a blank, and the mixture with the enzyme preparation added and only dimethyl sulfoxide added instead of the sample solution is a control.

Compound `Oc1ccc(-c2nccs2)c2oc(N3CC4CC(C3)N4)nc12` [Example 79, 2-(3,6-Diazabicyclo[3.1.1]heptan-3-yl)-7-(thiazol-2-yl)benzo[d]oxazol-4-ol] has an IC50 of under 100 nM.

Work on `Oc1ccc(-c2nccs2)c2oc(N3CC4CCCC(C3)N4)nc12` [Example 80, 2-(3,9-Diazabicyclo[3.3.1]nonan-3-yl)-7-(thiazol-2-yl) benzo[d]oxazol-4-ol] yielded an IC50 of under 100 nM.

`c1csc(-c2ccc(OC3CCC3)c3nc(N4CC5CCC(C4)N5)oc23)n1` [Example 81, 2-(3,8-Diazabicyclo[3.2.1]octan-3-yl)-4-cyclobutoxy-7-(thiazol-2-yl)benzo[d]oxazole] showed an IC50 of under 100 nM.

`N#CCOc1ccc(-c2nccs2)c2oc(N3CC4CCC(C3)N4)nc12` [Example 82, 2-((2-(3,8-Diazabicyclo[3.2.1]octan-3-yl)-7-(thiazol-2-yl)benzo[d]oxazol-4-yl)oxy)acetonitrile] gave an IC50 of under 100 nM.

`COCC(O)COc1ccc(-c2nccs2)c2oc(N3CC4CCC(C3)N4)nc12` (stereo not drawn) [Example 83, 1-((2-(3,8-Diazabicyclo[3.2.1]octan-3-yl)-7-(thiazol-2-yl)benzo[d]oxazol-4-yl)oxy)-3-methoxypropan-2-ol] showed an IC50 of under 100 nM.

Compound `c1csc(-c2ccc(OC3CCOC3)c3nc(N4CC5CCC(C4)N5)oc23)n1` (stereo not drawn) [Example 84, 2-(3,8-Diazabicyclo[3.2.1]octan-3-yl)-4-((tetrahydrofuran-3-yl)oxy)-7-(thiazol-2-yl)benzo[d]oxazole] has an IC50 of under 100 nM.

`c1csc(-c2ccc(-c3nccs3)c3oc(N4CC5CCC(C4)N5)nc23)n1` [Example 85, 2-(3,8-Diazabicyclo[3.2.1]octan-3-yl)-4,7-di(thiazol-2-yl)benzo[d]oxazole] showed an IC50 of under 100 nM.

With `CCOC(=O)c1cc(-c2nccs2)c2oc(N3CC4CCC(C3)N4)nc2c1` [Example 86, Ethyl 2-(3,8-diazabicyclo[3.2.1]octan-3-yl)-7-(thiazol-2-yl) benzo[d]oxazole-5-carboxylate] the IC50 was under 100 nM.

For `CCOC(=O)c1cc(-c2nccs2)c2oc(N3CC4CC(C3)N4)nc2c1` [Example 87, Ethyl 2-(3,6-diazabicyclo[3.1.1]heptan-3-yl)-7-(thiazol-2-yl)benzo[d]oxazole-5-carboxylate], the IC50 was under 100 nM.

`CCOC(=O)c1cc(-c2nccs2)c2oc(N3CC4COCC(C3)N4)nc2c1` [Example 88, Ethyl 2-(3-oxa-7,9-diazabicyclo[3.3.1]nonan-7-yl)-7-(thiazol-2-yl)benzo[d]oxazole-5-carboxylate] gave an IC50 of 100 to 1000 nM.

`CCOC(=O)c1cc(-c2nccs2)c2oc(N3CC4CCCC(C3)N4)nc2c1` [Example 89, Ethyl 2-(3,9-diazabicyclo[3.3.1]nonan-3-yl)-7-(thiazol-2-yl) benzo[d]oxazole-5-carboxylate] showed an IC50 of under 100 nM.

With `CCOC(=O)c1cc(-n2cccn2)c2oc(N3CC4CCC(C3)N4)nc2c1` [Example 90, Ethyl 2-(3,8-diazabicyclo[3.2.1]octan-3-yl)-7-(1H-pyrazol-1-yl)benzo[d]oxazole-5-carboxylate] the IC50 was 100 to 1000 nM.

Compound `CCOC(=O)c1cc(-n2cccn2)c2oc(N3CC4CC(C3)N4)nc2c1` [Example 91, Ethyl 2-(3,6-diazabicyclo[3.1.1]heptan-3-yl)-7-(1H-pyrazol-1-yl)benzo[d]oxazole-5-carboxylate] has an IC50 of over 1000 nM.

Work on `CCOC(=O)c1cc(-n2cccn2)c2oc(N3CC4COCC(C3)N4)nc2c1` [Example 92, Ethyl 2-(3-oxa-7,9-diazabicyclo[3.3.1]nonan-7-yl)-7-(1H-pyrazol-1-yl)benzo[d]oxazole-5-carboxylate] yielded an IC50 of over 1000 nM.

`CCOC(=O)c1cc(-n2cccn2)c2oc(N3CC4CCCC(C3)N4)nc2c1` [Example 93, Ethyl 2-(3,9-diazabicyclo[3.3.1]nonan-3-yl)-7-(1H-pyrazol-1-yl)benzo[d]oxazole-5-carboxylate] gave an IC50 of 100 to 1000 nM.

`CN(C)C(=O)c1cc(-c2nccs2)c2oc(N3CC4CCC(C3)N4)nc2c1` [Example 94, 2-(3,8-Diazabicyclo[3.2.1]octan-3-yl)-N,N-dimethyl-7-(thiazol-2-yl)benzo[d]oxazole-5-carboxamide] was tested, and the IC50 was under 100 nM.

`O=C(c1cc(-c2nccs2)c2oc(N3CC4CCC(C3)N4)nc2c1)N1CCOCC1` [Example 95, (2-(3,8-Diazabicyclo[3.2.1]octan-3-yl)-7-(thiazol-2-yl)benzo[d]oxazol-5-yl)(morpholino)methanone] gave an IC50 of under 100 nM.

For `O=C(c1cc(-c2nccs2)c2oc(N3CC4CCC(C3)N4)nc2c1)N1CCCCC1` [Example 96, (2-(3,8-Diazabicyclo[3.2.1]octan-3-yl)-7-(thiazol-2-yl)benzo[d]oxazol-5-yl)(piperidin-1-yl)methanone], the IC50 was under 100 nM.

In the case of `O=C(c1cc(-c2nccs2)c2oc(N3CC4CCC(C3)N4)nc2c1)N1CCC1` [Example 97, (2-(3,8-Diazabicyclo[3.2.1]octan-3-yl)-7-(thiazol-2-yl)benzo[d]oxazol-5-yl)(azetidin-1-yl)methanone], the IC50 is reported as under 100 nM.

For `O=C(NCc1ccccc1)c1cc(-c2nccs2)c2oc(N3CC4CCC(C3)N4)nc2c1` [Example 98, N-benzyl-2-(3,8-diazabicyclo[3.2.1]octan-3-yl)-7-(thiazol-2-yl)benzo[d]oxazole-5-carboxamide], the IC50 was under 100 nM.

Compound `NC(=O)c1cc(-c2nccs2)c2oc(N3CC4CCC(C3)N4)nc2c1` [Example 99, 2-(3,8-Diazabicyclo[3.2.1]octan-3-yl)-7-(thiazol-2-yl) benzo[d]oxazole-5-carboxamide] has an IC50 of under 100 nM.

For `CNC(=O)c1cc(-c2nccs2)c2oc(N3CC4CCC(C3)N4)nc2c1` [Example 100, 2-(3,8-Diazabicyclo[3.2.1]octan-3-yl)-N-methyl-7-(thiazol-2-yl)benzo[d]oxazole-5-carboxamide], the IC50 was under 100 nM.

`CC(=O)N(C)c1cc(-c2nccs2)c2oc(N3CC4CCC(C3)N4)nc2c1` [Example 101, N-(2-(3,8-diazabicyclo[3.2.1]octan-3-yl)-7-(thiazol-2-yl)benzo[d]oxazol-5-yl)-N-methylacetamide] showed an IC50 of under 100 nM.

In the case of `COC(C)(c1cc(-c2nccs2)c2oc(N3CC4CCC(C3)N4)nc2c1)C(F)(F)F` (stereo not drawn) [Example 102, 2-(3,8-Diazabicyclo[3.2.1]octan-3-yl)-7-(thiazol-2-yl)-5-(1,1,1-trifluoro-2-methoxypropan-2-yl)benzo[d]oxazole], the IC50 is reported as under 100 nM.

Work on `COC(C)(c1cc(-c2nccs2)c2oc(N3CC4CC(C3)N4)nc2c1)C(F)(F)F` (stereo not drawn) [Example 103, 2-(3,6-Diazabicyclo[3.1.1]heptan-3-yl)-7-(thiazol-2-yl)-5-(1,1,1-trifluoro-2-methoxypropan-2-yl)benzo[d]oxazole] yielded an IC50 of under 100 nM.

`COC(c1cc(-c2nccs2)c2oc(N3CC4CCC(C3)N4)nc2c1)C(F)F` (stereo not drawn) [Example 105, 2-(3,8-Diazabicyclo[3.2.1]octan-3-yl)-5-(2,2-difluoro-1-methoxyethyl)-7-(thiazol-2-yl)benzo[d]oxazole] showed an IC50 of under 100 nM.

`CC(O)c1cc(-c2nccs2)c2oc(N3CC4CCC(C3)N4)nc2c1` (stereo not drawn) [Example 106, 1-(2-(3,8-Diazabicyclo[3.2.1]octan-3-yl)-7-(thiazol-2-yl)benzo[d]oxazol-5-yl)ethan-1-ol] was tested, and the IC50 was under 100 nM.

In the case of `CC(O)c1cc(-c2nccs2)c2oc(N3CC4CC(C3)N4)nc2c1` (stereo not drawn) [Example 107, 1-(2-(3,6-Diazabicyclo[3.1.1]heptan-3-yl)-7-(thiazol-2-yl)benzo[d]oxazol-5-yl)ethan-1-ol], the IC50 is reported as 100 to 1000 nM.

Compound `CC(=O)c1cc(-c2nccs2)c2oc(N3CC4CCC(C3)N4)nc2c1` [Example 108, 1-(2-(3,8-Diazabicyclo[3.2.1]octan-3-yl)-7-(thiazol-2-yl)benzo[d]oxazol-5-yl)ethan-1-one] has an IC50 of under 100 nM.

For `CC(=O)c1cc(-c2nccs2)c2oc(N3CC4CC(C3)N4)nc2c1` [Example 109, 1-(2-(3,6-Diazabicyclo[3.1.1]heptan-3-yl)-7-(thiazol-2-yl)benzo[d]oxazol-5-yl)ethan-1-one], the IC50 was under 100 nM.

`COC(C)c1cc(-c2nccs2)c2oc(N3CC4CCC(C3)N4)nc2c1` (stereo not drawn) [Example 110, 2-(3,8-Diazabicyclo[3.2.1]octan-3-yl)-5-(1-methoxyethyl)-7-(thiazol-2-yl)benzo[d]oxazole] was tested, and the IC50 was under 100 nM.

In the case of `COC(C)c1cc(-c2nccs2)c2oc(N3CC4CC(C3)N4)nc2c1` (stereo not drawn) [Example 111, 2-(3,6-Diazabicyclo[3.1.1]heptan-3-yl)-5-(1-methoxyethyl)-7-(thiazol-2-yl)benzo[d]oxazole], the IC50 is reported as under 100 nM.

`CCOC(=O)c1ccc(-c2nccs2)c2oc(N3CC4CCC(C3)N4)nc12` [Example 112, Ethyl 2-(3,8-diazabicyclo[3.2.1]octan-3-yl)-7-(thiazol-2-yl) benzo[d]oxazole-4-carboxylate] gave an IC50 of under 100 nM.

Compound `CCOC(=O)c1ccc(-c2nccs2)c2oc(N3CC4CC(C3)N4)nc12` [Example 113, Ethyl 2-(3,6-diazabicyclo[3.1.1]heptan-3-yl)-7-(thiazol-2-yl)benzo[d]oxazole-4-carboxylate] has an IC50 of under 100 nM.

`CCOC(=O)c1ccc(-c2nccs2)c2oc(N3CC4CCCC(C3)N4)nc12` [Example 114, Ethyl 2-(3,9-diazabicyclo[3.3.1]nonan-3-yl)-7-(thiazol-2-yl) benzo[d]oxazole-4-carboxylate] showed an IC50 of under 100 nM.

With `CN(C)C(=O)c1ccc(-c2nccs2)c2oc(N3CC4CCC(C3)N4)nc12` [Example 115, 2-(3,8-Diazabicyclo[3.2.1]octan-3-yl)-N,N-dimethyl-7-(thiazol-2-yl)benzo[d]oxazole-4-carboxamide] the IC50 was under 100 nM.

Reference: patent US10669283B2, “Compound and pharmacologically acceptable salt thereof” (MEIJI SEIKA PHARMA CO., LTD., priority 2016, dated 2020)
